According to US20240189279A1, “IMMUNOMODULATORY COMPOSITIONS AND METHODS OF USE THEREOF” (THE TEXAS A&M UNIVERSITY SYSTEM, priority 2022, published 2024):

Columns and labels:
[1] = test system: TNFα and IL-1β expression in RAW 264.7 macrophages; assay: TNFα and IL-1β expression (qRT-PCR) in RAW 264.7 macrophages, palmitate and LPS two-hit model; format: cell-based, murine
[2] = test system: palmitate and LPS stimulated macrophages; assay: Cytokine production in palmitate and LPS stimulated macrophages; format: cell-based
AhR = target: T1, AhR (Homo sapiens, UniProt P35869); assay: Cell-based AhR reporter assays; conditions: extent comparable to other endogenous Trp-derived ligands (e.g., kynurenine)
T1 sequence (P35869 11-848): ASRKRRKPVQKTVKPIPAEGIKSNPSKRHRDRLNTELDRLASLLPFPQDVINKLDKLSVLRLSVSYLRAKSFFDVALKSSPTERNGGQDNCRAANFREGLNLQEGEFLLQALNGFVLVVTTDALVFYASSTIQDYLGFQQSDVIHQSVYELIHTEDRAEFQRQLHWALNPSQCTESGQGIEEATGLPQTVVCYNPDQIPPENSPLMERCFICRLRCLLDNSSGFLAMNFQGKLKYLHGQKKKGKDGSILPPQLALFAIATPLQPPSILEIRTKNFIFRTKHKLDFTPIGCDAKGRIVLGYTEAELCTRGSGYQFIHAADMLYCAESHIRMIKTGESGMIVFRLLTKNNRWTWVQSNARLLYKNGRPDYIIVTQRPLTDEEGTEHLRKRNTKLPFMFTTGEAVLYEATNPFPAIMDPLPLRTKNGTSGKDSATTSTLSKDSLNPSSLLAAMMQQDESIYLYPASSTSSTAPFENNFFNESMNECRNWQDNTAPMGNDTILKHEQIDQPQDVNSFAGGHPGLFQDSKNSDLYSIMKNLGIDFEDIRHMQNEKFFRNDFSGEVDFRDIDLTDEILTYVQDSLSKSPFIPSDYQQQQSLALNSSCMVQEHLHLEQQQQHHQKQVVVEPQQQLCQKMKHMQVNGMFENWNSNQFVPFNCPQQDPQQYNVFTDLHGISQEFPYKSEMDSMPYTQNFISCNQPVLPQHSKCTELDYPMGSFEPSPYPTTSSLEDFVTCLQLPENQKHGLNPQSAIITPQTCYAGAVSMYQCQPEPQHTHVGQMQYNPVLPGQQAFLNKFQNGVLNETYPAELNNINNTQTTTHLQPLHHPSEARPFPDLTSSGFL

[3] = test system: endotoxin-treated murine bone marrow derived macrophages; assay: Cytokine expression in endotoxin-treated bone marrow derived macrophages; format: cell-based
[4] = test system: colitis and fungal infection; conditions: administration of indole-3-aldehyde; cited from earlier work
NSAID enteropathy = conditions: indole administration; cited from earlier work
[5] = RAW 264.7, 1 mM AICAR 4 h, 300 μM palmitate 18 h, 10 ng/ml LPS 6 h

Compound: NC(=O)c1ncn([C@@H]2O[C@H](COP(=O)(O)O)[C@@H](O)[C@H]2O)c1N [AICAR, 5-aminoimidazole-4-carboxamide ribonucleotide]
- attenuation of palmitate and LPS stimulated increase in IL-1β expression [1, 5]: 80%
- attenuation of palmitate and LPS stimulated increase in TNFα expression [1, 5]: 30%

Compound: Cc1ccccc1N=Nc1ccc(NC(=O)c2ccnn2C)c(C)c1 [CH223191]
- effect of AhR inhibitor on I3A's reduction of palmitate and LPS induced TNFα and IL-β expression ([1]; RAW 264.7, CH223191 5 μM added 10 min before 1 mM I3A): did not alter I3A's effect

Compound: NCCc1c[nH]c2ccccc12 [TA, tryptamine]
- production of TNF-α, IL-1β, and MCP-1 [2]: dose-dependently attenuated the production of TNF-α, IL-1β, and MCP-1
- AhR activation (AhR): dose-dependently activate the AhR
- expression of IL-1, TNF-α, and MCP-1 [3]: dose-dependently downregulate the expression of IL-1, TNF-α, and MCP-1

Compound: O=Cc1c[nH]c2ccccc12 [indole-3-aldehyde]
- IL-22 production from natural killer (NK) cells [4]: induced IL-22 production from natural killer (NK) cells
- mucosal inflammation [4]: protected against mucosal inflammation

Compound: c1ccc2[nH]ccc2c1 [indole]
- mucosal inflammation and injury (NSAID enteropathy): decreased mucosal inflammation and injury
